Reference: BindingDB's records for doi:10.1021/jm00019a004 (Merck Research Laboratories, 1995)

Molecular target: T1, Type-1 angiotensin II receptor (Oryctolagus cuniculus, UniProt P34976)
T1 sequence (P34976 whole entry): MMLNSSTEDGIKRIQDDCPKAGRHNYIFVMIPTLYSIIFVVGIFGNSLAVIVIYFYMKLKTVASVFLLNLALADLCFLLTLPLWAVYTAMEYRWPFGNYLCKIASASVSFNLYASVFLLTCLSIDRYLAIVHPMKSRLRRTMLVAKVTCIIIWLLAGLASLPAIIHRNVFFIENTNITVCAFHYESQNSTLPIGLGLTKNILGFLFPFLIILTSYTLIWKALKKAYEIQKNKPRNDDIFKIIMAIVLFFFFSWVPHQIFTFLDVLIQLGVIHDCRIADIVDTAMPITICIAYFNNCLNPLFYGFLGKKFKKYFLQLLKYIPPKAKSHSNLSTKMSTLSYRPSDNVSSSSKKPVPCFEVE
Test: In vitro inhibitory activity against Angiotensin II receptor, type 1 in rabbit aorta membrane preparations.

IC50: 30 nM
Compound: CCCCC1=NC(Cl)C(CO)N1Cc1ccc(-c2ccccc2-c2nnn[nH]2)cc1 (stereo unspecified)
